Results: US11584737B2, “Heterocyclic compound” (TAKEDA PHARMACEUTICAL COMPANY LIMITED, priority 2018, dated 2023)

Legend:
CDK12/CycK complex = CDK12/CycK complex (Homo sapiens, UniProt Q9NYV4); test: Measurement of CDK12 inhibitory activity by binding assay (TR-FRET, 66 nM BODIPY-FL-labeled AT-7519); conditions: inhibitory rate against CDK12 at 1 μM test compound, 66 nM BODIPY-FL-labeled AT-7519, 2 nM CDK12/CycK
Protocol: Experimental Example 1: CDK12 Binding Assay
(3) Measurement of CDK12 Inhibitory Activity by Binding Assay
His-tagged CDK12/CycK complex was added to a binding assay buffer supplemented with BODIPY-FL labeled AT-7519, terbium-labeled streptavidin and biotin-labeled anti-histidine antibody, and the mixture was stood for not less than 60 min at room temperature. This solution was added to an assay plate containing a test compound dispensed therein, and the mixture was left standing for 120 min at room temperature. The final concentration of CDK12/CycK complex, BODIPY-FL-labeled AT-7519, terbium-labeled streptavidin and biotin-labeled anti-histidine antibody was set to 2 nM, 66 nM, 0.2 nM, and 0.4 nM, respectively. The fluorescence intensity derived from terbium and BODIPY-FL was measured using Envision. The signal value of each well was determined using the TR-FRET ratio calculated by the following formula. TR-FRET ratio=(fluorescence value of BODIPY-FL)÷(fluorescence value of terbium)
The inhibitory rate (%) of the test compound against CDK12 was calculated by the following formula. Inhibitory rate (%)=(1−(TR-FRET ratio of test compound−blank)÷(control−blank))×100
The TR-FRET ratio of the CDK12 enzyme reaction mixture under compound non-addition conditions is indicated as control, and the TR-FRET ratio under 3 μM AT-7519 addition conditions is indicated as blank.
The inhibitory rate of the test compound against CDK12 at […] is shown below.

CDK12/CycK enzyme = CDK12/CycK enzyme (Homo sapiens, UniProt Q9NYV4); test: Measurement of CDK12/CycK inhibitory activity (ULight-4E-BP1 peptide phosphorylation, LANCE); assay type: biochemical; conditions: inhibitory rate against CDK12/CycK at 1 μM test compound, ATP 10 μM or 500 μM
Protocol: Experimental Example 2: Measurement of CDK12/CycK Inhibitory Activity
A test compound dissolved in DMSO was added to a reaction solution (50 mM HEPES (pH 7.5), 10 mM MgCl2, 1 mM DTT, 0.01% Tween 20, 0.01% BSA) containing CDK12/CycK enzyme and ULight-labeled eIF4E-binding protein 1 (4E-BP1) (Thr37/Thr46) peptide (PerkinElmer), and the mixture was reacted at room temperature for 60 min. […] was added to give an ATP solution with a final concentration of 10 μM or 500 μM to start the enzyme reaction, and the mixture was reacted at room temperature for 60 min. A LANCE Detection buffer (PerkinElmer) containing europium-labeled anti-phosphorylation 4E-BP1 (Thr37/Thr46) antibody (PerkinElmer) and EDTA (final concentration 10 mM) was added to discontinue the reaction. After standing for 60 min, time decomposition fluorescence value (excitation 320 nm, emission 615 nm, 665 nm) was measured by Envision (PerkinElmer). The inhibitory rate (%) of the test compound against CDK12/CyclinK was calculated by the following formula. Inhibitory rate (%)=(1−(count of test compound−blank)÷(control−blank))×100
The count of the CDK12 enzyme reaction mixture under compound non-addition conditions is indicated as control, and the count under compound non-addition and CDK12/CycK enzyme non-addition conditions is indicated as blank.
The results measured by the above-mentioned method (inhibitory rate (%) of the signal value at 1 μM test compound relative to control is shown below.

[1] = system: A2780 intracellular CTD pSer2; test: CTD pSer2 measurement using human ovarian cancer cell A2780 and In-Cell Western method; assay type: cell-based; conditions: inhibitory rate against A2780 intracellular CTD pSer2 at 1 μM test compound, 4 hr
Protocol: Experimental Example 3: CTD pSer2 Measurement Using Human Ovarian Cancer Cell A2780 and In-Cell Western Method
A2780 cells (ATCC) were seeded in a 96 well plate at 1.8×10^4 cells/well, and the cells were cultured overnight in a cell culture medium RPMI1640 (FUJIFILM Wako Pure Chemical Corporation) containing 10% FBS (fetal bovine serum) and 1% penicillin/streptomycin. A test compound dissolved in a cell medium was added, and the mixture was stood for 4 hr in a CO2 incubator (37° C.). The cells were fixed with ALTFiX (Falma) for 30 min, and washed 3 times with a washing buffer (20 mM Tris-HCl (pH 7.5), 500 mM NaCl, 0.1% Tween20). 0.1% Triton-X-100 diluted with PBS(−) was added and the mixture was incubated at room temperature for 15 min. Thereafter, a blocking buffer (LI-COR) was added, and the mixture was incubated at room temperature for 1 hr. An anti-CTD pS2 antibody (Abcam) suspended in an antibody diluent (blocking buffer: PBS(−)-diluted 0.1% Tween20=1:1) was added, and the mixture was incubated at room temperature for 1 hr. The mixture was […] with a washing buffer, IRDye800CW-labeled anti-goat antibody (LI-COR) was added, and the mixture was incubated at room temperature for 1 hr. The mixture was washed 3 times with a washing buffer, and the fluorescence wavelength at 800 nm was measured by Aerius (LI-COR).
The inhibitory rate (%) of the test compound against A2780 intracellular CTD pSer2 was calculated by the following formula. Inhibitory rate (%)=(1−(count of test compound−blank)÷(control−blank))×100
The count of the A2780 cell under compound non-addition conditions is indicated as control, and the count under compound non-addition and primary antibody non-addition conditions is indicated as blank.
The results measured by the above-mentioned method (inhibitory rate of the signal value at 1 μM test compound relative to control) are shown below.

A2780 cells = test: In vitro proliferation suppression test (CellTiter-Glo); assay type: cell-based, human; conditions: Homo sapiens, 72 h, A2780 cell proliferation inhibitory rate at 1 μM test compound, three days
Protocol: Experimental Example 4: In Vitro Proliferation Suppression Test
The proliferation suppressive activity of compound in A2780 cells was evaluated by the following method.
A2780 cells were seeded in a 384-well white plate at a cell density of 1,000 cells/40 μL/well or a 96-well white plate at a cell density of 1,000 cells/90 μL/well using an assay medium (RPMI1640 medium containing 10% fetal bovine serum (FUJIFILM Wako Pure Chemical Corporation)) and incubated at 37° C. in 5% CO2.
The next day, a test compound dissolved in dimethyl sulfoxide (DMSO) was diluted with an assay medium, the obtained compound solution was added by 40 μL/well or 10 μL/well to each well of the plate containing A2780 cells and the mixture was incubated (test compound addition group). In addition, a similar reaction was performed without adding the test compound (test compound non-addition group).
Three days later, 80 μL or 100 μL of CellTiter-Glo reagent (Promega) was added, and the mixture was stirred for 10 min. Thereafter, the luminescence of each well was measured by ARVO-MX multilabel counter (Perkin Elmer Inc.).
The proliferation inhibitory rate (%) of each test compound against A2780 cells was calculated by the following calculation formula. Proliferation inhibitory rate (%)=(1−luminescence of test compound addition group÷luminescence of test compound non-addition group)×100
The A2780 cell proliferation inhibitory rate (%) of 1 μM test compound is shown below.

Sequence of CDK12/CycK enzyme (Q9NYV4 whole entry, species assumed): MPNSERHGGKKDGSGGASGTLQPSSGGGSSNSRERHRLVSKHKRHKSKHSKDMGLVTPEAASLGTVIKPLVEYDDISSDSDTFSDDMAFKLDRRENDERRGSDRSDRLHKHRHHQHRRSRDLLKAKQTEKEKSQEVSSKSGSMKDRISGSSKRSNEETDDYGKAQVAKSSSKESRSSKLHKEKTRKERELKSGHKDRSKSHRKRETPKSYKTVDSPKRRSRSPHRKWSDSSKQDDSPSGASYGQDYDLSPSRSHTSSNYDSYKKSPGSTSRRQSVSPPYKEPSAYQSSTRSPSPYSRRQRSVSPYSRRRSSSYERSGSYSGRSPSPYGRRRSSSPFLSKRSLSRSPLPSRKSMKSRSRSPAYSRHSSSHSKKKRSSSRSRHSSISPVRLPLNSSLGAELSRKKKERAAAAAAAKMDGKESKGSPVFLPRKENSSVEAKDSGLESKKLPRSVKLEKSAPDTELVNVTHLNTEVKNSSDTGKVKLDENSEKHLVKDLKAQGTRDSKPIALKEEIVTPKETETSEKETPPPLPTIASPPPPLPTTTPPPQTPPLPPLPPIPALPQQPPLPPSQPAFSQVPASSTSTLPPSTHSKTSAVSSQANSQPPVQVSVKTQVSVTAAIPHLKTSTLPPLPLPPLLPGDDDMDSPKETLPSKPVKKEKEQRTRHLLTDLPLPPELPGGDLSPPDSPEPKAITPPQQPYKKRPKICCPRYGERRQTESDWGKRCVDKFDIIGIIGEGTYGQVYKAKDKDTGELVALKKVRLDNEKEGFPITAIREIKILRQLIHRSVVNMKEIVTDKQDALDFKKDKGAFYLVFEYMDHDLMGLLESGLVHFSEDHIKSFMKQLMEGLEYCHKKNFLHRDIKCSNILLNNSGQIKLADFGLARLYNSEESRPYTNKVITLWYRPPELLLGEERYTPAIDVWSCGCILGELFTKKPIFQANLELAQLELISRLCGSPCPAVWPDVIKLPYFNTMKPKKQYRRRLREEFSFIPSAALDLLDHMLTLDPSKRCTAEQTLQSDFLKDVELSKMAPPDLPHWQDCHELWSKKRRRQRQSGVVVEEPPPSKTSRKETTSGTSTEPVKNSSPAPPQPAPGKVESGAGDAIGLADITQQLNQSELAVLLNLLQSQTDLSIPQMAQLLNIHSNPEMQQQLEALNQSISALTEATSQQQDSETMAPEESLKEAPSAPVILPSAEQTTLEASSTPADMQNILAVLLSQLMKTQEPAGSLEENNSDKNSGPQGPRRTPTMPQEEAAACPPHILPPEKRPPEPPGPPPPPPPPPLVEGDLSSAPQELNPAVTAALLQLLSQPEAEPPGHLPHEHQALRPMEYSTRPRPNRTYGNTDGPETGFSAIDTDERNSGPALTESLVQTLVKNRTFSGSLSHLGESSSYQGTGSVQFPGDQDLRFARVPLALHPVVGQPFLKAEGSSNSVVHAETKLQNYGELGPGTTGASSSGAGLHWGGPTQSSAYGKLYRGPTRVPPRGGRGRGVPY
Sequence of CDK12/CycK enzyme (O75909 whole entry partner, species assumed): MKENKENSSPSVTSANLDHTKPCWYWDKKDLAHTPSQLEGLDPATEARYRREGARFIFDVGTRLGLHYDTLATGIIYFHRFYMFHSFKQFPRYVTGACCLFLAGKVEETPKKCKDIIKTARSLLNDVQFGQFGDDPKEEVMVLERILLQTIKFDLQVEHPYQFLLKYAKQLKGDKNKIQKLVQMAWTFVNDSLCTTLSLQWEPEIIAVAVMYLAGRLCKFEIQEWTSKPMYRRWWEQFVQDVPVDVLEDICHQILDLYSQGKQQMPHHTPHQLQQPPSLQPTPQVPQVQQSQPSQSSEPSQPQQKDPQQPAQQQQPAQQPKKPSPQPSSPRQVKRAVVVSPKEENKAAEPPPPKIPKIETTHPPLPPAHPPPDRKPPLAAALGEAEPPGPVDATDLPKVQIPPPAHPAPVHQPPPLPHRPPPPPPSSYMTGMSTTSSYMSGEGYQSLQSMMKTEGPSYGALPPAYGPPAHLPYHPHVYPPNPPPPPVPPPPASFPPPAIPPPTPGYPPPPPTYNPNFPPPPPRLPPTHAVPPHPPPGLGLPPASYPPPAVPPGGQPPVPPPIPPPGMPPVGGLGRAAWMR
Sequence of CDK12/CycK complex (Q9NYV4 whole entry, species assumed): as the sequence (Q9NYV4 whole entry, species assumed) above
Sequence of CDK12/CycK complex (O75909 whole entry partner, species assumed): as the sequence (O75909 whole entry partner, species assumed) above

Cn1cc(-c2ccc(N(C(=O)NCc3ccccc3)[C@H]3CC[C@H](Nc4ncc(C#N)c(NC5COC5)n4)CC3)nc2)cn1 [Example 319, 3-benzyl-1-(trans-4-((5-cyano-4-(oxetan-3-ylamino)pyrimidin-2-yl)amino)cyclohexyl)-1-(5-(1-methyl-1H-pyrazol-4-yl)pyridin-2-yl)urea]
inhibition at 1 µM (CDK12/CycK complex): 94% | inhibition at 1 µM (CDK12/CycK enzyme): 98% | inhibition at 1 µM [1]: 69% | inhibition at 1 µM (A2780 cells): 97%

Cn1cc(-c2ccc(N(C(=O)NCc3ccccc3)[C@H]3CC[C@H](Nc4ncc(C#N)c(-c5cncc(S(C)(=O)=O)c5)n4)CC3)nc2)cn1 [Example 440, 3-benzyl-1-(trans-4-((5-cyano-4-(5-(methylsulfonyl)pyridin-3-yl)pyrimidin-2-yl)amino)cyclohexyl)-1-(5-(1-methyl-1H-pyrazol-4-yl)pyridin-2-yl) urea]
inhibition at 1 µM (CDK12/CycK complex): 99% | inhibition at 1 µM (CDK12/CycK enzyme): 101% | inhibition at 1 µM [1]: 54% | inhibition at 1 µM (A2780 cells): 98%

Cc1cc(-c2nc(N[C@H]3CC[C@H](N(C(=O)NCc4ccccc4)c4ccc(-c5cnn(C)c5)cn4)CC3)ncc2C#N)[nH]n1 [Example 469, 3-benzyl-1-(trans-4-((5-cyano-4-(3-methyl-1H-pyrazol-5-yl)pyrimidin-2-yl)amino)cyclohexyl)-1-(5-(1-methyl-1H-pyrazol-4-yl)pyridin-2-yl) urea]
inhibition at 1 µM (CDK12/CycK complex): 94% | inhibition at 1 µM (CDK12/CycK enzyme): 103% | inhibition at 1 µM [1]: 62% | inhibition at 1 µM (A2780 cells): 97%

Cn1cc(-c2ccc(N(C(=O)NCc3ccccc3)[C@H]3CC[C@H](Nc4ncc(C#N)c(OC5COC5)n4)CC3)nc2)cn1 [Example 485, 3-benzyl-1-(trans-4-((5-cyano-4-(oxetan-3-yloxy)pyrimidin-2-yl)amino)cyclohexyl)-1-(5-(1-methyl-1H-pyrazol-4-yl)pyridin-2-yl)urea]
inhibition at 1 µM (CDK12/CycK complex): 102% | inhibition at 1 µM (CDK12/CycK enzyme): 103% | inhibition at 1 µM [1]: 63% | inhibition at 1 µM (A2780 cells): 97%

Cn1cc(-c2ccc(N(C(=O)NCc3ccccc3)[C@H]3CC[C@H](Nc4ncc(C#N)c(NC5COC5)n4)CC3)cc2)cn1 [Example 527, 3-benzyl-1-(trans-4-((5-cyano-4-(oxetan-3-ylamino)pyrimidin-2-yl)amino)cyclohexyl)-1-(4-(1-methyl-1H-pyrazol-4-yl)phenyl)urea]
inhibition at 1 µM (CDK12/CycK complex): 102% | inhibition at 1 µM (CDK12/CycK enzyme): 99% | inhibition at 1 µM [1]: 70% | inhibition at 1 µM (A2780 cells): 97%

Cn1ccc(-c2ccc(N(C(=O)NCc3ccccc3)[C@H]3CC[C@H](Nc4ncc(C#N)c(NC5COC5)n4)CC3)cc2)cc1=O [Example 530, 3-benzyl-1-(trans-4-((5-cyano-4-(oxetan-3-ylamino)pyrimidin-2-yl)amino)cyclohexyl)-1-(4-(1-methyl-2-oxo-1,2-dihydropyridin-4-yl)phenyl) urea]
inhibition at 1 µM (CDK12/CycK complex): 100% | inhibition at 1 µM (CDK12/CycK enzyme): 104% | inhibition at 1 µM [1]: 64% | inhibition at 1 µM (A2780 cells): 97%

Cn1cc(-c2ccc(N(C(=O)NCc3ccccc3)[C@H]3CC[C@H](Nc4ncc(C#N)c(-c5[nH]ncc5Cl)n4)CC3)nc2)cn1 [Example 536, 3-benzyl-1-(trans-4-((4-(4-chloro-1H-pyrazol-5-yl)-5-cyanopyrimidin-2-yl)amino)cyclohexyl)-1-(5-(1-methyl-1H-pyrazol-4-yl)pyridin-2-yl)urea]
inhibition at 1 µM (CDK12/CycK complex): 96% | inhibition at 1 µM (CDK12/CycK enzyme): 95% | inhibition at 1 µM [1]: 82% | inhibition at 1 µM (A2780 cells): 91%

Cn1cc(-c2cnc(N(C(=O)NCc3ccccc3)[C@H]3CC[C@H](Nc4ncc(C#N)c(NC5COC5)n4)CC3)cn2)cn1 [Example 539, 3-benzyl-1-(trans-4-((5-cyano-4-(oxetan-3-ylamino)pyrimidin-2-yl)amino)cyclohexyl)-1-(5-(1-methyl-1H-pyrazol-4-yl)pyrazin-2-yl)urea]
inhibition at 1 µM (CDK12/CycK complex): 99% | inhibition at 1 µM (CDK12/CycK enzyme): 109% | inhibition at 1 µM [1]: 71% | inhibition at 1 µM (A2780 cells): 96%

COc1ncc(-c2ccc(N(C(=O)NCc3ccccc3)[C@H]3CC[C@H](Nc4ncc(C#N)c(NC5COC5)n4)CC3)nc2)cn1 [Example 553, 3-benzyl-1-(trans-4-((5-cyano-4-(oxetan-3-ylamino)pyrimidin-2-yl)amino)cyclohexyl)-1-(5-(2-methoxypyrimidin-5-yl)pyridin-2-yl)urea]
inhibition at 1 µM (CDK12/CycK complex): 100% | inhibition at 1 µM (CDK12/CycK enzyme): 106% | inhibition at 1 µM [1]: 74% | inhibition at 1 µM (A2780 cells): 98%

Cn1cc(-c2ccc(N(C(=O)NCc3ccccc3)[C@H]3CC[C@H](Nc4ncc(C(F)(F)F)c(N5CCC6(COC6)C5)n4)CC3)nc2)cn1 [Example 566, 3-benzyl-1-(5-(1-methyl-1H-pyrazol-4-yl)pyridin-2-yl)-1-(trans-4-((4-(2-oxa-6-azaspiro[3.4]octa-6-yl)-5-(trifluoromethyl)pyrimidin-2-yl)amino)cyclohexyl)urea]
inhibition at 1 µM (CDK12/CycK complex): 102% | inhibition at 1 µM (CDK12/CycK enzyme): 100% | inhibition at 1 µM [1]: 72% | inhibition at 1 µM (A2780 cells): 98%

Cn1cc(-c2ccc(N(C(=O)NCc3ccccc3)[C@H]3CC[C@H](Nc4ncc(C(F)(F)F)c(NC5COC5)n4)CC3)nc2)cn1 [Example 574, 3-benzyl-1-(5-(1-methyl-1H-pyrazol-4-yl)pyridin-2-yl)-1-(trans-4-((4-(oxetan-3-ylamino)-5-(trifluoromethyl)pyrimidin-2-yl)amino)cyclohexyl)urea]
inhibition at 1 µM (CDK12/CycK complex): 103% | inhibition at 1 µM (CDK12/CycK enzyme): 99% | inhibition at 1 µM [1]: 83% | inhibition at 1 µM (A2780 cells): 97%
